In US3962256A, “2-Aminomethyl benzimidazole derivatives” (Delalande S.A., priority 1973, dated 1976):
Structures can show the parent of a compound that is named as a salt.

Assays:
[1] = tested on: gastric ulcers, provoked in a rat by tying of the pylorus (Shay ulcers); assay: Antiulcerous: reduction of Shay ulcers (tying of the pylorus); assay type: in vivo; settings: 50 mg/Kg/i.d.
Method: The compounds of formula (I) administered by intraduodenal means reduce the extent of gastric ulcers, provoked in a rat by tying of the pylorus (Shay ulcers).
By way of example, there is listed in the following Table IX, the results obtained by the administrations of 50 mg/Kg/i.d. of different compounds of formula (I).

[2] = Lethal doses / percentage mortality, oral; assay type: in vivo; settings: for mortality: in vivo, po
Excerpt: As a result of a comparison between the pharmacologically active doses mentioned above and the lethal doses listed in the following Table XII, the difference between said doses is sufficiently great to permit the utilisation of the compounds of formula (I) in therapeutics.

[3] = tested on: explorations in the escape enclosure; assay: Sedative: reduction of number of explorations in the escape enclosure; assay type: in vivo; settings: 100 mg/Kg/p.o., mouse
Method: The compounds of formula (I), administered by oral means to the mouse, reduce the number of explorations in the escape enclosure.
By way of example, the following Table VIII lists the results obtained by the administration of 100 mg/Kg/p.o. of different compounds of formula (I).

[4] = tested on: oedema caused by the sub-plantar injection of carraghenin; assay: Antiinflammatory: reduction of sub-plantar oedema caused by carraghenin, rat; assay type: in vivo; settings: 100 mg/Kg/p.o.
Method: These properties are shown by a diminution of the local oedema caused by the sub-plantar injection of a phlogogenic agent, such as carraghenin, in the rat following the oral administration of compounds of formula (I).
The following Table VI lists, by way of example, the percentage reduction of the oedems caused by the sub-plantar injection of carraghenin, resulting from the administration of 100 mg/Kg/p.o. of different compounds of formula (I).

[5] = tested on: bronchoconstriction provoked in the guinea-pig by acetylcholine; assay: Antibronchoconstrictive and anticholinergic: bronchoconstriction by intravenous acetylcholine, Konzett method; assay type: in vivo
Excerpt: Injected by intraveinous or intraduodenal means, the compounds of formula (I) are capable of opposing the bronchoconstriction provoked in the guinea-pig by the itraveinous injection of acetylcholine by the Konzett method.
By way of example, the following Table VII lists the results obtained by the administration of different compounds of formula (I)

[6] = tested on: painful stretchings caused by the intraperitoneal injection of acetic acid; assay: Analgesic: reduction of painful stretchings caused by intraperitoneal acetic acid, oral, mouse; assay type: in vivo; settings: 100 mg/Kg/p.o.
Method: The compounds of formula (I), administered by oral means to the mouse, are capable of reducing the number of painful stretchings caused by the intraperitoneal injection of acetic acid.
By way of example, the following Table III lists the results obtained by administration of 100 mg/Kg/p.o. of different compounds of formula (I).

[7] = tested on: rat suffering from high blood pressure; assay: Antihypertensive: return of systolic arterial pressure to normal in rats with high blood pressure; assay type: in vivo
Excerpt: The compounds of formula (I), administered by oral means to a rat suffering from high blood pressure, are capable of lowering the systolic arteriel pressure.
By way of example, there is provided in the following Table IV the results obtained by administration of different compounds of formula (I).

[8] = tested on: isolated heart of a guinea-pig; assay: Vasodilatatory: coronary flow of isolated heart; settings: 1 μg/ml in perfusion liquid
Method: The compounds of formula (I) are capable of augmenting the flow of the coronary vessels of the isolated heart of a guinea-pig when said compounds are added in the perfusion liquid of said organ.
By way of example, there can be found in the following Table X, the percentage augmentation of the flow of the isolated heart of a guinea-pig by adding different compounds of formula (I) to the perfusion liquid, in a concentration of 1 μg/ml.

[9] = tested on: ventricular fibrillations provoked by the inhalation of chloroform; assay: Antiarythmic: protection against ventricular fibrillations provoked by inhalation of chloroform; assay type: in vivo; settings: i.p., mouse
Excerpt: Administered by intraperitoneal means, the compounds of formula (I) are capable of protecting the mouse against the ventricular fibrillations provoked by the inhalation of chloroform.

[10] = tested on: gastric secretion measured after Shay ligature; assay: Gastric antisecretory: reduction of gastric secretion after Shay ligature, rat; assay type: in vivo; settings: 50 mg/Kg/i.d.
Method: Administered by intraduodenal means to a rat, the compounds of formula (I) are capable of reducing the gastric secretion measured after Shay ligature.
By way of example, the following Table V gives the results obtained by administration of 50 mg/Kg/i.d. of different compounds of formula (I).

[11] = tested on: isolated duodenum of the rat; assay: Spasmolytic: opposing barium chloride contraction of isolated duodenum; settings: papaverine as standard
Method: The compounds of formula (I), introduced in the conserving medium are capable of opposing the contractural action of barium chloride on the isolated duodenum of the rat. This activity is evaluated by taking papaverine as standard.

O=C(CCn1c(CN2CCOCC2)nc2ccccc21)c1ccc(Cl)cc1 [72 359]
Percentage reduction of Shay ulcers [1]: 35% | Percentage mortality ([2]; 2 000 mg/Kg/p.o., 2000 mg/kg): 0%

COc1ccc(C(=O)CCn2c(CN3CCCCC3)nc3ccccc32)cc1OC [72 377]
Percentage reduction of Shay ulcers [1]: 55% | Percentage reduction of number of explorations in the escape enclosure [3]: 30% | Percentage mortality ([2]; 2 000 mg/Kg/p.o., 2000 mg/kg): 0%

CCN(CC)Cc1nc2ccccc2n1CCC(=O)c1ccc(Cl)cc1 [72 390]
Percentage reduction of sub-plantar oedema [4]: 60% | Percentage reduction of Shay ulcers [1]: 40% | Percentage mortality ([2]; 2 000 mg/Kg/p.o., 2000 mg/kg): 0%

COc1ccc(C(=O)CCn2c(CN3CCOCC3)nc3ccccc32)cc1OC [72 391]
Percentage inhibition of bronchoconstriction ([5]; 100 mg/kg/i.d.): 100% | Percentage reduction of number of painful stretchings [6]: 60% | Percentage reduction of number of explorations in the escape enclosure [3]: 50% | Percentage mortality ([2]; 2 000 mg/Kg/p.o., 2000 mg/kg): 0%

COc1cc(C(=O)CCn2c(CN3CCCC3)nc3ccccc32)cc(OC)c1OC [72 414]
Percentage inhibition of bronchoconstriction ([5]; 100 mg/kg/i.d.): 50% | Percentage of rats with high blood pressure whose systolic arteriel pressure is returned to normal ([7]; 150 mg/Kg/p.o.): 75%

CCCCOc1ccc(C(=O)CCn2c(CN3CCCCC3)nc3ccccc32)cc1 [72 464]
Percentage reduction of number of explorations in the escape enclosure [3]: 30% | Percentage mortality ([2]; 2 000 mg/Kg/p.o., 2000 mg/kg): 0%

Cc1ccc(C(=O)CCn2c(CN3CCOCC3)nc3ccccc32)cc1 [72 478]
Percentage augmentations of flow of isolated heart of a guinea-pig [8]: 50% | Percentage mortality ([2]; 2 000 mg/Kg/p.o., 2000 mg/kg): 0%

CN(C)Cc1nc2ccccc2n1CCC(=O)c1ccc(Cl)cc1 [72 479]
Percentage reduction of Shay ulcers [1]: 30% | Percentage augmentations of flow of isolated heart of a guinea-pig [8]: 80% | DE 50 [9]: 200 mg/Kg/i.p. | Percentage mortality ([2]; 2 000 mg/Kg/p.o., 2000 mg/kg): 0% | Percentage of rats with high blood pressure whose systolic arteriel pressure is returned to normal ([7]; 200 mg/Kg/p.o.): 50%

O=C(CCn1c(CN2CCCCC2)nc2ccccc21)c1ccc(F)cc1 [72 487]
Percentage inhibition of bronchoconstriction ([5]; 100 mg/kg/i.d.): 60% | Percentage reduction of number of painful stretchings [6]: 80% | Percentage reductions in volume of gastric secretion [10]: 40%

O=C(CCn1c(CN2CCCCCC2)nc2ccccc21)c1ccc(F)cc1 [72 488]
Percentage reduction of sub-plantar oedema [4]: 50% | Percentage reduction of Shay ulcers [1]: 25% | DE 50 [9]: 200 mg/Kg/i.p. | Percentage mortality ([2]; 2 000 mg/Kg/p.o., 2000 mg/kg): 0%

COc1ccc(C(=O)CCn2c(CN(C)C)nc3ccccc32)cc1OC [72 490]
Percentage reduction of Shay ulcers [1]: 30% | Percentage augmentations of flow of isolated heart of a guinea-pig [8]: 140%

O=C(CCn1c(CN2CCCCC2)nc2ccccc21)c1ccccc1 [72 491]
Percentage reduction of number of painful stretchings [6]: 65% | Percentage mortality ([2]; 2 000 mg/Kg/p.o., 2000 mg/kg): 0% | Percentage of rats with high blood pressure whose systolic arteriel pressure is returned to normal ([7]; 200 mg/Kg/p.o.): 50%

O=C(CCn1c(CN2CCCC2)nc2ccccc21)c1ccccc1 [72 493]
Percentage reductions in volume of gastric secretion [10]: 25%

O=C(CCn1c(CN2CCOCC2)nc2ccccc21)c1ccccc1 [72 494]
Percentage reduction of sub-plantar oedema [4]: 40% | Percentage reductions in volume of gastric secretion [10]: 25% | mortality ([2]; 2000 mg/kg, 2 000 mg/Kg/p.o.): 0%

CCCCOc1ccc(C(=O)CCn2c(CN3CCOCC3)nc3ccccc32)cc1 [72 523]
Percentage reduction of number of painful stretchings [6]: 45% | Percentage reductions in volume of gastric secretion [10]: 25% | Percentage mortality ([2]; 2 000 mg/Kg/p.o., 2000 mg/kg): 0%

COc1cc(C(=O)CCn2c(CN3CCOCC3)nc3ccccc32)cc(OC)c1OC.O=C(O)/C=C\C(=O)O [72 525]
Percentage inhibition of bronchoconstriction ([5]; 100 mg/kg/i.d.): 80% | Percentage of rats with high blood pressure whose systolic arteriel pressure is returned to normal ([7]; 200 mg/Kg/p.o.): 50%

O=C(CCn1c(CN2CCOCC2)nc2ccccc21)c1ccc(F)cc1.O=C(O)/C=C\C(=O)O [72 526]
Percentage inhibition of bronchoconstriction ([5]; 100 mg/kg/i.d.): 75% | Percentage reduction of sub-plantar oedema [4]: 55% | Percentage reduction of Shay ulcers [1]: 40% | Percentage of rats with high blood pressure whose systolic arteriel pressure is returned to normal ([7]; 100 mg/Kg/p.o.): 75%

COc1cc(C(=O)CCn2c(CN(C)C)nc3ccccc32)cc(OC)c1OC [72 534]
Percentage inhibition of bronchoconstriction ([5]; 100 mg/kg/i.d.): 50% | Percentage mortality ([2]; 2 000 mg/Kg/p.o., 2000 mg/kg): 0%

Cc1ccc(C(=O)CCn2c(CN3CCCCC3)nc3ccccc32)c(C)c1 [72 540]
Percentage inhibition of bronchoconstriction ([5]; 100 mg/kg/i.d.): 50% | Percentage reduction of number of explorations in the escape enclosure [3]: 30% | Percentage mortality ([2]; 2 000 mg/Kg/p.o., 2000 mg/kg): 0%

CCN(CC)Cc1nc2ccccc2n1CCC(=O)c1ccc(F)cc1.O=C(O)/C=C\C(=O)O [72 568]
DE 50 [9]: 200 mg/Kg/i.p. | Percentage of rats with high blood pressure whose systolic arteriel pressure is returned to normal ([7]; 200 mg/Kg/p.o.): 50%

CCN(CC)Cc1nc2ccccc2n1CCC(=O)c1ccccc1 [72 573, 1-(2'-benzoylethyl maleate)-2-diethylaminomethyl benzimidazole]
Percentage inhibition of bronchoconstriction ([5]; 5 mg/kg/i.v.): 100% | spasmolytic activity relative to papaverine [11]: equivalent spasmolytic actvity to that of papaverine | mortality ([2]; 1 250 mg/Kg/p.o.): ~50%

CCN(CC)Cc1nc2ccccc2n1CCC(=O)c1ccc(C)cc1.O=C(O)/C=C\C(=O)O [72 574]
Percentage reduction of number of painful stretchings [6]: 45% | Percentage reduction of Shay ulcers [1]: 45%

COc1ccc(C(=O)CCn2c(CN3CCCC3)nc3ccccc32)cc1OC [72 617]
Percentage reduction of number of painful stretchings [6]: 70%

CN(C)Cc1nc2ccccc2n1CCC(=O)c1ccc(F)cc1.O=C(O)/C=C\C(=O)O [72 663]
Percentage reduction of number of painful stretchings [6]: 60% | Percentage reduction of number of explorations in the escape enclosure [3]: 30%

O=C(CCn1c(CN2CCCC2)nc2ccccc21)c1ccc(F)cc1 [72 708]
Percentage inhibition of bronchoconstriction ([5]; 100 mg/kg/i.d.): 90% | spasmolytic activity relative to papaverine [11]: equivalent spasmolytic actvity to that of papaverine | Percentage reduction of number of painful stretchings [6]: 60% | Percentage reduction of Shay ulcers [1]: 30%

Cc1ccc(C(=O)CCn2c(CN(C)C)nc3ccccc32)c(C)c1 [72 712]
Percentage reduction of sub-plantar oedema [4]: 70% | Percentage reduction of Shay ulcers [1]: 55% | Percentage reduction of number of explorations in the escape enclosure [3]: 40% | Percentage mortality ([2]; 2 000 mg/Kg/p.o., 2000 mg/kg): 0%

CCCCOc1ccc(C(=O)CCn2c(CN(CC)CC)nc3ccccc32)cc1 [72 727]
Percentage inhibition of bronchoconstriction ([5]; 100 mg/kg/i.d.): 100%
